Experiments:
Format in all cases: functional
Conditions in all cases: read-out: Activity
NCI-H460 = assay: Cytotoxicity against human NCI-H460 cells assessed as cell viability at 10 uM incubated for 48 hrs by sulforhodamine B assay relative to control
NCI-H23 = assay: Cytotoxicity against human NCI-H23 cells assessed as cell viability at 10 uM incubated for 48 hrs by sulforhodamine B assay relative to control
K562 = assay: Cytotoxicity against human K562 cells assessed as cell viability at 10 uM incubated for 48 hrs by sulforhodamine B assay relative to control
HOP-62 = assay: Cytotoxicity against human HOP-62 cells assessed as cell viability at 10 uM incubated for 48 hrs by sulforhodamine B assay relative to control
HOP-92 = assay: Cytotoxicity against human HOP-92 cells assessed as cell viability at 10 uM incubated for 48 hrs by sulforhodamine B assay relative to control
BT-549 = assay: Cytotoxicity against human BT-549 cells assessed as cell viability at 10 uM incubated for 48 hrs by sulforhodamine B assay relative to control
SW-620 = assay: Cytotoxicity against human SW-620 cells assessed as cell viability at 10 uM incubated for 48 hrs by sulforhodamine B assay relative to control
MOLT-4 = assay: Cytotoxicity against human MOLT-4 cells assessed as cell viability at 10 uM incubated for 48 hrs by sulforhodamine B assay relative to control
PC-3 = assay: Cytotoxicity against human PC-3 cells assessed as cell viability at 10 uM incubated for 48 hrs by sulforhodamine B assay relative to control
IGROV-1 = assay: Cytotoxicity against human IGROV-1 cells assessed as cell viability at 10 uM incubated for 48 hrs by sulforhodamine B assay relative to control
OVCAR-8 = assay: Cytotoxicity against human OVCAR-8 cells assessed as cell viability at 10 uM incubated for 48 hrs by sulforhodamine B assay relative to control
M14 = assay: Cytotoxicity against human M14 cells assessed as cell viability at 10 uM incubated for 48 hrs by sulforhodamine B assay relative to control
U-251 = assay: Cytotoxicity against human U-251 cells assessed as cell viability at 10 uM incubated for 48 hrs by sulforhodamine B assay relative to control
SF-268 = assay: Cytotoxicity against human SF-268 cells assessed as cell viability at 10 uM incubated for 48 hrs by sulforhodamine B assay relative to control
MDA-MB-231 = assay: Cytotoxicity against human MDA-MB-231 cells assessed as cell viability at 10 uM incubated for 48 hrs by sulforhodamine B assay relative to control
SNB-19 = assay: Cytotoxicity against human SNB-19 cells assessed as cell viability at 10 uM incubated for 48 hrs by sulforhodamine B assay relative to control
NCI-H522 = assay: Cytotoxicity against human NCI-H522 cells assessed as cell viability at 10 uM incubated for 48 hrs by sulforhodamine B assay relative to control
CCRF-CEM = assay: Cytotoxicity against human CCRF-CEM cells assessed as cell viability at 10 uM incubated for 48 hrs by sulforhodamine B assay relative to control
OVCAR-3 = assay: Cytotoxicity against human OVCAR-3 cells assessed as cell viability at 10 uM incubated for 48 hrs by sulforhodamine B assay relative to control
Hs-578T = assay: Cytotoxicity against human HS-578T cells assessed as cell viability at 10 uM incubated for 48 hrs by sulforhodamine B assay relative to control
EKVX = assay: Cytotoxicity against human EKVX cells assessed as cell viability at 10 uM incubated for 48 hrs by sulforhodamine B assay relative to control
UACC-62 = assay: Cytotoxicity against human UACC-62 cells assessed as cell viability at 10 uM incubated for 48 hrs by sulforhodamine B assay relative to control
RPMI-8226 = assay: Cytotoxicity against human RPMI-8226 cells assessed as cell viability at 10 uM incubated for 48 hrs by sulforhodamine B assay relative to control
TK-10 = assay: Cytotoxicity against human TK-10 cells assessed as cell viability at 10 uM incubated for 48 hrs by sulforhodamine B assay relative to control
MDA-MB-468 = assay: Cytotoxicity against human MDA-MB-468 cells assessed as cell viability at 10 uM incubated for 48 hrs by sulforhodamine B assay relative to control
A549 = assay: Cytotoxicity against human A549 cells assessed as cell viability at 10 uM incubated for 48 hrs by sulforhodamine B assay relative to control
SN12C = assay: Cytotoxicity against human SN12C cells assessed as cell viability at 10 uM incubated for 48 hrs by sulforhodamine B assay relative to control
HL-60(TB) = assay: Cytotoxicity against human HL-60(TB) cells assessed as cell viability at 10 uM incubated for 48 hrs by sulforhodamine B assay relative to control
COLO 205 = assay: Cytotoxicity against human COLO 205 cells assessed as cell viability at 10 uM incubated for 48 hrs by sulforhodamine B assay relative to control
NCI-H226 = assay: Cytotoxicity against human NCI-H226 cells assessed as cell viability at 10 uM incubated for 48 hrs by sulforhodamine B assay relative to control
NCI/ADR-RES = assay: Cytotoxicity against human NCI/ADR-RES cells assessed as cell viability at 10 uM incubated for 48 hrs by sulforhodamine B assay relative to control
DU-145 = assay: Cytotoxicity against human DU-145 cells assessed as cell viability at 10 uM incubated for 48 hrs by sulforhodamine B assay relative to control
KM12 = assay: Cytotoxicity against human KM12 cells assessed as cell viability at 10 uM incubated for 48 hrs by sulforhodamine B assay relative to control
SNB-75 = assay: Cytotoxicity against human SNB-75 cells assessed as cell viability at 10 uM incubated for 48 hrs by sulforhodamine B assay relative to control
ACHN = assay: Cytotoxicity against human ACHN cells assessed as cell viability at 10 uM incubated for 48 hrs by sulforhodamine B assay relative to control
SR = assay: Cytotoxicity against human SR cells assessed as cell viability at 10 uM incubated for 48 hrs by sulforhodamine B assay relative to control
786-0 = assay: Cytotoxicity against human 786-0 cells assessed as cell viability at 10 uM incubated for 48 hrs by sulforhodamine B assay relative to control
OVCAR-5 = assay: Cytotoxicity against human OVCAR-5 cells assessed as cell viability at 10 uM incubated for 48 hrs by sulforhodamine B assay relative to control
MDA-MB-435 = assay: Cytotoxicity against human MDA-MB-435 cells assessed as cell viability at 10 uM incubated for 48 hrs by sulforhodamine B assay relative to control
OVCAR-4 = assay: Cytotoxicity against human OVCAR-4 cells assessed as cell viability at 10 uM incubated for 48 hrs by sulforhodamine B assay relative to control
SK-MEL-28 = assay: Cytotoxicity against human SK-MEL-28 cells assessed as cell viability at 10 uM incubated for 48 hrs by sulforhodamine B assay relative to control

O=C(NCCNc1nccc(-c2c(-c3cccc(F)c3)nc3sccn23)n1)c1ccccc1
viability at 10 µM (NCI-H460): 28.8%
viability at 10 µM (NCI-H23): 64.9%
viability at 10 µM (K562): 44%
viability at 10 µM (HOP-62): 77.5%
viability at 10 µM (HOP-92): 82.2%
viability at 10 µM (BT-549): 71.2%
viability at 10 µM (SW-620): 52.3%
viability at 10 µM (MOLT-4): 46.5%
viability at 10 µM (PC-3): 62.9%
viability at 10 µM (IGROV-1): 16.5%
viability at 10 µM (OVCAR-8): 46.8%
viability at 10 µM (M14): 28.4%
viability at 10 µM (U-251): 59.4%
viability at 10 µM (SF-268): 58.8%
viability at 10 µM (MDA-MB-231): 65.1%
viability at 10 µM (SNB-19): 63.5%
viability at 10 µM (NCI-H522): 57.9%
viability at 10 µM (CCRF-CEM): 40.9%
viability at 10 µM (OVCAR-3): 67.8%
viability at 10 µM (Hs-578T): 64.7%
viability at 10 µM (EKVX): 54.4%
viability at 10 µM (UACC-62): 11.2%
viability at 10 µM (RPMI-8226): 45.7%
viability at 10 µM (TK-10): 73%
viability at 10 µM (MDA-MB-468): 57.4%
viability at 10 µM (A549): 26.7%
viability at 10 µM (SN12C): 48.2%
viability at 10 µM (HL-60(TB)): 83.7%
viability at 10 µM (COLO 205): 10.4%
viability at 10 µM (NCI-H226): 44.3%
viability at 10 µM (NCI/ADR-RES): 64.9%
viability at 10 µM (DU-145): 64.5%
viability at 10 µM (KM12): 56.6%
viability at 10 µM (SNB-75): 54.6%
viability at 10 µM (ACHN): 29.1%
viability at 10 µM (SR): 29.4%
viability at 10 µM (786-0): 45.4%
viability at 10 µM (OVCAR-5): 79.9%
viability at 10 µM (MDA-MB-435): 27%
viability at 10 µM (OVCAR-4): 55.4%
viability at 10 µM (SK-MEL-28): 58.7%

O=C(NCCNc1nccc(-c2c(-c3cccc(F)c3)nc3sccn23)n1)c1ccc(Cl)cc1
viability at 10 µM (NCI-H460): 35.8%
viability at 10 µM (NCI-H23): 73.5%
viability at 10 µM (K562): 54.4%
viability at 10 µM (HOP-62): 91.9%
viability at 10 µM (HOP-92): 87.1%
viability at 10 µM (BT-549): 75.9%
viability at 10 µM (SW-620): 65.2%
viability at 10 µM (MOLT-4): 65.7%
viability at 10 µM (PC-3): 72.5%
viability at 10 µM (IGROV-1): 22.5%
viability at 10 µM (OVCAR-8): 55.1%
viability at 10 µM (M14): 38.8%
viability at 10 µM (U-251): 66.1%
viability at 10 µM (SF-268): 67.9%
viability at 10 µM (MDA-MB-231): 65.5%
viability at 10 µM (SNB-19): 71.9%
viability at 10 µM (NCI-H522): 68.4%
viability at 10 µM (CCRF-CEM): 58.1%
viability at 10 µM (OVCAR-3): 75.7%
viability at 10 µM (Hs-578T): 74.8%
viability at 10 µM (EKVX): 63.2%
viability at 10 µM (UACC-62): 14.7%
viability at 10 µM (RPMI-8226): 62.4%
viability at 10 µM (TK-10): 75.4%
viability at 10 µM (MDA-MB-468): 67.8%
viability at 10 µM (A549): 34.8%
viability at 10 µM (SN12C): 52.5%
viability at 10 µM (HL-60(TB)): 99.2%
viability at 10 µM (COLO 205): 29.8%
viability at 10 µM (NCI-H226): 51.2%
viability at 10 µM (NCI/ADR-RES): 74.3%
viability at 10 µM (DU-145): 71%
viability at 10 µM (KM12): 62.8%
viability at 10 µM (SNB-75): 63.5%
viability at 10 µM (ACHN): 34.2%
viability at 10 µM (SR): 46.5%
viability at 10 µM (786-0): 54.5%
viability at 10 µM (OVCAR-5): 88.3%
viability at 10 µM (MDA-MB-435): 32%
viability at 10 µM (OVCAR-4): 77.9%
viability at 10 µM (SK-MEL-28): 64.9%

Source: ChEMBL document CHEMBL4665642, “Anticancer profile of newly synthesized BRAF inhibitors possess 5-(pyrimidin-4-yl)imidazo[2,1-b]thiazole scaffold” (Bioorg Med Chem, 2019)
